This note sets out measurements from patent US4299830A, “1,5-Methano-1,4-benzodiazocines, intermediates therefor, and method of use and compositions thereof” (Sterling Drug Inc., priority 1980, dated 1981).

A short description of data set [1]: Anti-acetylcholine Writhing Test. It is filed as in vivo. To be noted: mice; for ED50: Mus musculus, read-out: ED50 (95% Confidence Limits); for ED50 / ED50 (95% Confidence Limits): expressed as free base. From the text: This response has been called writhing.
A general note: Writhing tests count abdominal constrictions after an irritant is injected.

The nature of data set [2]: Anti-phenylquinone Writhing Test. Format: in vivo. To be noted: Mus musculus, mice, expressed as free base, read-out: ED50 (95% Confidence Limits).
The next data set can be described thus: Anti-bradykinin Test. As to conditions: rats, expressed as free base; for ED50: Rattus norvegicus, read-out: ED50 (95% Confidence Limits). It is filed as in vivo.
The nature of data set [3]: EDTA Antinociceptive Test. As to conditions: Cavia porcellus, sc, 0.5 h; subcutaneous, guinea pig, 30 minutes; read-out: subcutaneously effective dose (reduces the response score to 6 or less). It is filed as in vivo. As for the experimental part: This is also a confirmatory evaluation of analgesic activity. The test animal is the guinea pig. A threshold intradermal dose of ethylenediaminetetraacetic acid (EDTA) which can reproducibly elicit a cumulative response score of 12-18 discrete episodes of jumping, rearing, running, vocalization and biting or scratching at the site of injection within 40 seconds after challenge is determined for each animal. Thirty minutes after the administration of saline or test compound to 6-7 animals per dose, each animal is again challenged with its own threshold dose of EDTA. An effective drug dose is considered to be one which reduces the response score to 6 or less.

The nature of a further data set: Tail-flick Agonist Test. Format: in vivo. As to conditions: doses up to 120 mg./kg. subcutaneously, rats.
Data set [4] in a line: Tail-flick Antagonist Test against morphine. To be noted: Rattus norvegicus, read-out: AD50 (95% Confidence Limits).
Data set [5] is described as follows: Tail-flick Antagonist Test against meperidine. To be noted: Rattus norvegicus, read-out: AD50 (95% Confidence Limits).
The nature of data set [6]: Tail-flick Antagonist Test against phenazocine. To be noted: for ED50: Rattus norvegicus, read-out: AD50 (95% Confidence Limits); for antagonist response at 1 mg./kg.: 1 mg./kg. subcutaneous; for antagonist response at 10 mg./kg.: 10 mg./kg. subcutaneous.
Data set [7] is described as follows: Comparison in three of the foregoing tests with the compound lacking 9-amino. As to conditions: relative to Gubitz compound.

Take `Nc1ccc2c(c1)N1CCN(CC3CC3)C(C2)C1` (racemic) [Example 1D, 4-cyclopropylmethyl-9-amino-3,4,5,6-tetrahydro-2H-1,5-methano-1,4-benzodiazocine]: the ED50 in data set [1] (po) was 5.9 mg/kg; in [1] (sc, subcutaneous) it was 3.2 mg/kg; in data set [2] (sc, subcutaneous), 1.8 mg/kg; in [2] (oral), 5.7 mg/kg; in “Anti-bradykinin Test” (sc, subcutaneous) it was 2.6 mg/kg; in “Anti-bradykinin Test” (oral), 5.4 mg/kg. The ED50 in data set [4] (sc) came to 8.6 mg/kg; in data set [5] (sc), 3.3 mg/kg; in data set [6] (sc) it was 1.6 mg/kg. Besides, the “ED50 (95% Confidence Limits)” value in data set [1] (oral) is given as 5.9 (3.9-8.7) Mg./Kg; in [1] (subcutaneous), 3.2 (2.0-4.8) Mg./Kg; in “Anti-bradykinin Test” (subcutaneous), 2.6 (1.5-4.1) Mg./Kg. Moreover, the minimal effective dose in [3] came to 1.25 mg/kg. In “Tail-flick Agonist Test”, the tail-flick agonist activity result is “at most inactive or questionably active”. For the same compound, in data set [6] (subcutaneous, against phenazocine, expressed as free base), the “AD50 (95% Confidence Limits)” value was 1.6 (1.0-2.6) mg./kg. In addition, the “times more potent than the compound of Formula A (lacking 9-amino)” value in [7] is “four to ten”.

As to `c1ccc2c(c1)CC1CN2CCN1CC1CC1` (stereo not shown) [Compound of Formula A*, 4-cyclopropylmethyl-3,4,5,6-tetrahydro-2H-1,5-methano-1,4-benzodiazocine, reference compound], the ED50 was found to be 32 mg/kg in data set [1] (po); 12 mg/kg in [1] (sc, subcutaneous); 21 mg/kg in “Anti-bradykinin Test” (sc, subcutaneous); 34 mg/kg in [6] (sc).

Regarding `CCS(=O)(=O)O.CCS(=O)(=O)O.Nc1ccc2c(c1)N1CCN(CC3CC3)C(C2)C1` (stereo not shown) [Example 1E, 4-cyclopropylmethyl-9-amino-3,4,5,6-tetrahydro-2H-1,5-methano-1,4-benzodiazocine diethanesulfonate], the ED50 was 3.7 mg/kg in data set [1] (sc, subcutaneous); 4.2 mg/kg in “Anti-bradykinin Test” (oral); 13 mg/kg in data set [4] (po); 4.8 mg/kg in data set [5] (po); 3.5 mg/kg in [6] (po). In addition, in “Tail-flick Agonist Test”, the tail-flick agonist activity entry is “at most inactive or questionably active”.

For `Nc1ccc2c(c1)N1CCN(CC3CC3)C(C2)C1` (stereo not shown) [Example 1J, levo-4-cyclopropylmethyl-9-3,4,5,6-tetrahydro-2H-1,5-methano-1,4-benzodiazocine], the “response at 75 mg./kg. (highest dose tested)” value in data set [1] (75 mg./kg. subcutaneous) stood at 67%. Besides, in data set [1] (subcutaneous), the “ED50 (95% Confidence Limits)” value is 40 Mg./Kg. In addition, in data set [6] (against phenazocine), the “antagonist response at 1 mg./kg.” value is reported as 10% and the “antagonist response at 10 mg./kg.” value worked out at 6%. Also, the “antagonist response at 80 mg./kg.” value in data set [6] (80 mg./kg. subcutaneous, against phenazocine) worked out at 25%.

As to `Nc1ccc2c(c1)N1CCN(CC3CC3)C(C2)C1` (stereo not shown) [Example 1K, dextro-4-cyclpropylmethyl-9-amino-3,4,5,6-tetrahydro-2H-1,5-methano-1,4-benzodiazocine], the “ED50 (95% Confidence Limits)” value in data set [1] (subcutaneous) was 1.0 (0.62-2.0) Mg./Kg. In addition, in data set [6] (sc), the ED50 is 0.31 mg/kg.

Consider `C=CCN1CCN2CC1Cc1ccc(N)cc12` (stereo not shown) [Example 2E, 4-allyl-9-amino-3,4,5,6-tetrahydro-2H-1,5-methano-1,4-benzodiazocine diethanesulfonate hemihydrate], for which the ED50 in data set [1] (sc, subcutaneous) turned out to be 30 mg/kg; in [6] (sc), 1.6 mg/kg.

Regarding `CCNc1ccc2c(c1)N1CCN(CC3CC3)C(C2)C1.Cl.Cl` (stereo not shown) [Example 3B, 4-cyclopropylmethyl-9-ethylamino-3,4,5,6-tetrahydro-2H-1,5-methano-1,4-benzodiazocine dihydrochloride], the ED50 in [1] (sc, subcutaneous) is 3.8 mg/kg; in “Anti-bradykinin Test” (sc, subcutaneous) it was 3.4 mg/kg; in data set [6] (sc), 4.4 mg/kg. For the same compound, in the data set “Tail-flick Agonist Test”, the tail-flick agonist activity result is “at most inactive or questionably active”.

In the case of `CCCCNc1ccc2c(c1)N1CCN(CC3CC3)C(C2)C1` (stereo not shown) [Example 4B, 4-cyclopropylmethyl-9-butylamino-3,4,5,6-tetrahydro-2H-1,5-methano-1,4-benzodiazocine], the ED50 in data set [1] (sc, subcutaneous) stood at 1.6 mg/kg. Also, in the data set “Anti-bradykinin Test” (sc, subcutaneous), the ED50 came out at 2.9 mg/kg. Besides, the tail-flick agonist activity entry in “Tail-flick Agonist Test” was “at most inactive or questionably active”. Also, in [6] (against phenazocine), the “antagonist response at 1 mg./kg.” value was determined as 6% and the “antagonist response at 10 mg./kg.” value was found to be 0%. Moreover, the “antagonist response at 20 mg./kg.” value in [6] (20 mg./kg. subcutaneous, against phenazocine) came to 34%. Moreover, the “toxic effects at 20 mg./kg.” value in data set [6] (20 mg./kg. subcutaneous, rats) is reported as “toxic effects”.
